From PubChem BioAssay (NCI)
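All cell lines were grown in 96-well plates and treated with compound for 48 hours. Definition used: TGI = concentration required for complete inhibition of growth.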

Columns and labels:
Assay in all cases: growth of human tumour cells (NCI), 48 h
[1] = system: PC-3 prostate
[2] = system: CAKI-1 renal
[3] = system: SN12C renal
[4] = system: UO-31 renal
[5] = system: SNB-75 CNS
[6] = system: 786-0 renal
[7] = system: NCI-H226 lung
[8] = system: T-47D breast
[9] = system: HCT-15 colon
[10] = system: HCT-116 colon
[11] = system: OVCAR-5 ovarian
[12] = system: M14 melanoma
[13] = system: SK-OV-3 ovarian
[14] = system: OVCAR-8 ovarian
[15] = system: SK-MEL-2 melanoma
[16] = system: HT29 colon
[17] = system: MCF7 breast
[18] = system: ACHN renal
[19] = system: EKVX NSCLC
[20] = system: HL-60(TB) leukemia
[21] = system: NCI-H23 lung
[22] = system: SK-MEL-28 melanoma
[23] = system: LOX IMVI melanoma
[24] = system: OVCAR-3 ovarian
[25] = system: DU-145 prostate
[26] = system: UACC-257 melanoma
[27] = system: MDA-N
[28] = system: MOLT-4 leukemia
[29] = system: SF-539 CNS
[30] = system: U251 CNS
[31] = system: SF-295 CNS
[32] = system: CCRF-CEM leukemia
[33] = system: IGROV1 ovarian
[34] = system: COLO 205 colon
[35] = system: NCI/ADR-RES ovarian
[36] = system: A549 NSCLC
[37] = system: NCI-H460 lung
[38] = system: MDA-MB-231 breast
[39] = system: SF-268 CNS
[40] = system: OVCAR-4 ovarian
[41] = system: K-562 leukemia
[42] = system: MALME-3M melanoma
[43] = system: SW-620 colon
[44] = system: KM12 colon
[45] = system: UACC-62 melanoma
[46] = system: NCI-H522 lung
[47] = system: HCC-2998 colon
[48] = system: A498 renal
[49] = system: TK-10 renal
[50] = system: HOP-62 NSCLC
[51] = system: SNB-19 CNS
[52] = system: HOP-92 NSCLC
[53] = system: MDA-MB-435
[54] = system: RXF 393 renal

Measured: TGI

NNC(=O)CNC(=O)CSc1nnc(COc2ccc(Cl)cc2)n1-c1ccccc1
> 100 µM: all assays above
